≈ marks a conversion by molar mass, not a printed value.
Key:
Type in all cases: functional
[1] = tested on: Tetranychus urticae; assay: Resistance ratio, ratio of LC50 for adult Tetranychus urticae (two-spotted spider mite) laboratory strain GSS to LC50 for adult Tetranychus urticae laboratory strain SAMB measured after 24 hr
[2] = tested on: Tetranychus urticae; assay: Resistance ratio, ratio of LC50 for adult Tetranychus urticae (two-spotted spider mite) field population TU4 to LC50 for adult Tetranychus urticae laboratory strain SAMB measured after 24 hr
[3] = tested on: Tetranychus urticae; assay: Resistance ratio, ratio of LC50 for adult Tetranychus urticae (two-spotted spider mite) greenhouse population TU3 to LC50 for adult Tetranychus urticae laboratory strain SAMB measured after 24 hr
[4] = tested on: Tetranychus urticae; assay: Acaricidal activity against adult Tetranychus urticae (two-spotted spider mite) greenhouse population TU3 in bean leaves assessed as mortality applied at 1 bar pressure measured after 24 hr; conditions: TU3, 24 h
[5] = tested on: Tetranychus urticae; assay: Acaricidal activity against adult Tetranychus urticae (two-spotted spider mite) greenhouse population TU7 in bean leaves assessed as mortality applied at 1 bar pressure measured after 24 hr; conditions: TU7, 24 h
[6] = tested on: Tetranychus urticae; assay: Resistance ratio, ratio of LC50 for adult Tetranychus urticae (two-spotted spider mite) greenhouse population TU1 to LC50 for adult Tetranychus urticae laboratory strain SAMB measured after 24 hr
[7] = tested on: Tetranychus urticae; assay: Acaricidal activity against adult Tetranychus urticae (two-spotted spider mite) greenhouse population TU1 in bean leaves assessed as mortality applied at 1 bar pressure measured after 24 hr; conditions: TU1, 24 h
[8] = tested on: Tetranychus urticae; assay: Acaricidal activity against adult Tetranychus urticae (two-spotted spider mite) field population TU6 in bean leaves assessed as mortality applied at 1 bar pressure measured after 24 hr; conditions: TU6, 24 h
[9] = tested on: Tetranychus urticae; assay: Resistance ratio, ratio of LC50 for adult Tetranychus urticae (two-spotted spider mite) field population TU2 to LC50 for adult Tetranychus urticae laboratory strain SAMB measured after 24 hr
[10] = tested on: Tetranychus urticae; assay: Acaricidal activity against adult Tetranychus urticae (two-spotted spider mite) greenhouse population TU11 in bean leaves assessed as mortality applied at 1 bar pressure measured after 24 hr; conditions: TU11, 24 h
[11] = tested on: Tetranychus urticae; assay: Acaricidal activity against adult Tetranychus urticae (two-spotted spider mite) field population TU12 in bean leaves assessed as mortality applied at 1 bar pressure measured after 24 hr; conditions: TU12, 24 h
[12] = tested on: Tetranychus urticae; assay: Resistance ratio, ratio of LC50 for adult Tetranychus urticae (two-spotted spider mite) field population TU6 to LC50 for adult Tetranychus urticae laboratory strain SAMB measured after 24 hr
[13] = tested on: Tetranychus urticae; assay: Acaricidal activity against adult Tetranychus urticae (two-spotted spider mite) field population TU2 in bean leaves assessed as mortality applied at 1 bar pressure measured after 24 hr; conditions: TU2, 24 h
[14] = tested on: Tetranychus urticae; assay: Resistance ratio, ratio of LC50 for adult Tetranychus urticae (two-spotted spider mite) field population TU12 to LC50 for adult Tetranychus urticae laboratory strain SAMB measured after 24 hr
[15] = tested on: Tetranychus urticae; assay: Resistance ratio, ratio of LC50 for adult Tetranychus urticae (two-spotted spider mite) greenhouse population TU9 to LC50 for adult Tetranychus urticae laboratory strain SAMB measured after 24 hr
[16] = tested on: Tetranychus urticae; assay: Acaricidal activity against adult Tetranychus urticae (two-spotted spider mite) greenhouse population TU9 in bean leaves assessed as mortality applied at 1 bar pressure measured after 24 hr; conditions: TU9, 24 h
[17] = tested on: Tetranychus urticae; assay: Acaricidal activity against adult Tetranychus urticae (two-spotted spider mite) field population TU4 in bean leaves assessed as mortality applied at 1 bar pressure measured after 24 hr; conditions: TU4, 24 h
[18] = tested on: Tetranychus urticae; assay: Acaricidal activity against adult Tetranychus urticae (two-spotted spider mite) greenhouse population TU5 in bean leaves assessed as mortality applied at 1 bar pressure measured after 24 hr; conditions: TU5, 24 h
[19] = tested on: Tetranychus urticae; assay: Resistance ratio, ratio of LC50 for adult Tetranychus urticae (two-spotted spider mite) greenhouse population TU7 to LC50 for adult Tetranychus urticae laboratory strain SAMB measured after 24 hr
[20] = tested on: Tetranychus urticae; assay: Resistance ratio, ratio of LC50 for adult Tetranychus urticae (two-spotted spider mite) greenhouse population TU5 to LC50 for adult Tetranychus urticae laboratory strain SAMB measured after 24 hr
[21] = tested on: Tetranychus urticae; assay: Acaricidal activity against adult Tetranychus urticae (two-spotted spider mite) laboratory strain GSS in bean leaves assessed as mortality applied at 1 bar pressure measured after 24 hr
[22] = tested on: Tetranychus urticae; assay: Resistance ratio, ratio of LC50 for adult Tetranychus urticae (two-spotted spider mite) greenhouse population TU11 to LC50 for adult Tetranychus urticae laboratory strain SAMB measured after 24 hr
[23] = tested on: Tetranychus urticae; assay: Acaricidal activity against adult Tetranychus urticae (two-spotted spider mite) laboratory strain SAMB in bean leaves assessed as mortality applied at 1 bar pressure measured after 24 hr
[24] = tested on: Tetranychus urticae; assay: Acaricidal activity against adult Tetranychus urticae (two-spotted spider mite) greenhouse population TU1 in bean leaves assessed as mortality applied at 1 bar pressure measured after 48 hr; conditions: TU1, 48 h
[25] = tested on: Tetranychus urticae; assay: Resistance ratio, ratio of LC50 for adult Tetranychus urticae (two-spotted spider mite) greenhouse population TU7 to LC50 for adult Tetranychus urticae laboratory strain SAMB measured after 48 hr
[26] = tested on: Tetranychus urticae; assay: Resistance ratio, ratio of LC50 for adult Tetranychus urticae (two-spotted spider mite) field population TU6 to LC50 for adult Tetranychus urticae laboratory strain SAMB measured after 48 hr
[27] = tested on: Tetranychus urticae; assay: Acaricidal activity against adult Tetranychus urticae (two-spotted spider mite) field population TU2 in bean leaves assessed as mortality applied at 1 bar pressure measured after 48 hr; conditions: TU2, 48 h
[28] = tested on: Tetranychus urticae; assay: Resistance ratio, ratio of LC50 for adult Tetranychus urticae (two-spotted spider mite) laboratory strain GSS to LC50 for adult Tetranychus urticae laboratory strain SAMB measured after 48 hr
[29] = tested on: Tetranychus urticae; assay: Resistance ratio, ratio of LC50 for adult Tetranychus urticae (two-spotted spider mite) greenhouse population TU1 to LC50 for adult Tetranychus urticae laboratory strain SAMB measured after 48 hr
[30] = tested on: Tetranychus urticae; assay: Acaricidal activity against adult Tetranychus urticae (two-spotted spider mite) laboratory strain SAMB in bean leaves assessed as mortality applied at 1 bar pressure measured after 48 hr
[31] = tested on: Tetranychus urticae; assay: Resistance ratio, ratio of LC50 for adult Tetranychus urticae (two-spotted spider mite) field population TU12 to LC50 for adult Tetranychus urticae laboratory strain SAMB measured after 48 hr
[32] = tested on: Tetranychus urticae; assay: Resistance ratio, ratio of LC50 for adult Tetranychus urticae (two-spotted spider mite) field population TU2 to LC50 for adult Tetranychus urticae laboratory strain SAMB measured after 48 hr
[33] = tested on: Tetranychus urticae; assay: Resistance ratio, ratio of LC50 for adult Tetranychus urticae (two-spotted spider mite) field population TU4 to LC50 for adult Tetranychus urticae laboratory strain SAMB measured after 48 hr
[34] = tested on: Tetranychus urticae; assay: Acaricidal activity against adult Tetranychus urticae (two-spotted spider mite) greenhouse population TU5 in bean leaves assessed as mortality applied at 1 bar pressure measured after 48 hr; conditions: TU5, 48 h
[35] = tested on: Tetranychus urticae; assay: Resistance ratio, ratio of LC50 for adult Tetranychus urticae (two-spotted spider mite) greenhouse population TU5 to LC50 for adult Tetranychus urticae laboratory strain SAMB measured after 48 hr
[36] = tested on: Tetranychus urticae; assay: Resistance ratio, ratio of LC50 for adult Tetranychus urticae (two-spotted spider mite) greenhouse population TU3 to LC50 for adult Tetranychus urticae laboratory strain SAMB measured after 48 hr
[37] = tested on: Tetranychus urticae; assay: Acaricidal activity against adult Tetranychus urticae (two-spotted spider mite) field population TU6 in bean leaves assessed as mortality applied at 1 bar pressure measured after 48 hr; conditions: TU6, 48 h
[38] = tested on: Tetranychus urticae; assay: Resistance ratio, ratio of LC50 for adult Tetranychus urticae (two-spotted spider mite) greenhouse population TU11 to LC50 for adult Tetranychus urticae laboratory strain SAMB measured after 48 hr
[39] = tested on: Tetranychus urticae; assay: Acaricidal activity against adult Tetranychus urticae (two-spotted spider mite) greenhouse population TU3 in bean leaves assessed as mortality applied at 1 bar pressure measured after 48 hr; conditions: TU3, 48 h
[40] = tested on: Tetranychus urticae; assay: Acaricidal activity against adult Tetranychus urticae (two-spotted spider mite) greenhouse population TU11 in bean leaves assessed as mortality applied at 1 bar pressure measured after 48 hr; conditions: TU11, 48 h
[41] = tested on: Tetranychus urticae; assay: Acaricidal activity against adult Tetranychus urticae (two-spotted spider mite) greenhouse population TU9 in bean leaves assessed as mortality applied at 1 bar pressure measured after 48 hr; conditions: TU9, 48 h
[42] = tested on: Tetranychus urticae; assay: Acaricidal activity against adult Tetranychus urticae (two-spotted spider mite) field population TU12 in bean leaves assessed as mortality applied at 1 bar pressure measured after 48 hr; conditions: TU12, 48 h
[43] = tested on: Tetranychus urticae; assay: Resistance ratio, ratio of LC50 for adult Tetranychus urticae (two-spotted spider mite) greenhouse population TU9 to LC50 for adult Tetranychus urticae laboratory strain SAMB measured after 48 hr
[44] = tested on: Tetranychus urticae; assay: Acaricidal activity against adult Tetranychus urticae (two-spotted spider mite) greenhouse population TU7 in bean leaves assessed as mortality applied at 1 bar pressure measured after 48 hr; conditions: TU7, 48 h
[45] = tested on: Tetranychus urticae; assay: Acaricidal activity against adult Tetranychus urticae (two-spotted spider mite) field population TU4 in bean leaves assessed as mortality applied at 1 bar pressure measured after 48 hr; conditions: TU4, 48 h
[46] = tested on: Tetranychus urticae; assay: Acaricidal activity against adult Tetranychus urticae (two-spotted spider mite) laboratory strain GSS in bean leaves assessed as mortality applied at 1 bar pressure measured after 48 hr

CC(C)(C)c1ccc(CCOc2ncnc3ccccc23)cc1 [FENAZAQUIN]
RatioLC50 [1]: 1.3
RatioLC50 [2]: 4.1
RatioLC50 [3]: 5.7
LC50 [4]: 77 µg/mL (≈ 251 µM)
LC50 [5]: 447 µg/mL (≈ 1460 µM)
RatioLC50 [6]: 13
LC50 [7]: 179 µg/mL (≈ 584 µM)
LC50 [8]: 29 µg/mL (≈ 94.6 µM)
RatioLC50 [9]: 7.3
LC50 [10]: 562 µg/mL (≈ 1830 µM)
LC50 [11]: 215 µg/mL (≈ 702 µM)
RatioLC50 [12]: 2.2
LC50 [13]: 97 µg/mL (≈ 317 µM)
RatioLC50 [14]: 15
RatioLC50 [15]: 23
LC50 [16]: 316 µg/mL (≈ 1030 µM)
LC50 [17]: 55 µg/mL (≈ 179 µM)
LC50 [18]: 49 µg/mL (≈ 160 µM)
RatioLC50 [19]: 33
RatioLC50 [20]: 3.7
LC50 [21]: 17 µg/mL (≈ 55.5 µM)
RatioLC50 [22]: 42
LC50 [23]: 13 µg/mL (≈ 42.4 µM)

CCN(CC)c1nc(C)cc(OP(=S)(OC)OC)n1 [PIRIMIPHOS METHYL]
LC50 [24]: 248 µg/mL (≈ 812 µM)
RatioLC50 [25]: 74
RatioLC50 [26]: 8.9
LC50 [27]: 225 µg/mL (≈ 737 µM)
RatioLC50 [28]: 19
RatioLC50 [29]: 14
LC50 [30]: 18 µg/mL (≈ 59 µM)
RatioLC50 [31]: 4.3
RatioLC50 [32]: 12
RatioLC50 [33]: 5.5
LC50 [34]: 204 µg/mL (≈ 668 µM)
RatioLC50 [35]: 11
RatioLC50 [36]: 7.3
LC50 [37]: 158 µg/mL (≈ 517 µM)
RatioLC50 [38]: 23
LC50 [39]: 130 µg/mL (≈ 426 µM)
LC50 [40]: 417 µg/mL (≈ 1370 µM)
LC50 [41]: 248 µg/mL (≈ 812 µM)
LC50 [42]: 77 µg/mL (≈ 252 µM)
RatioLC50 [43]: 14
LC50 [44]: 1330 µg/mL (≈ 4360 µM)
LC50 [45]: 98 µg/mL (≈ 321 µM)
LC50 [46]: 332 µg/mL (≈ 1090 µM)
